According to patent US6451814B1, “Heterocyclic β-3 adrenergic receptor agonists” (Wyeth, priority 2000, dated 2002):
“And” between values parts separate entries of the source, which are not always exact repeats. Identical values can stand only once. Like-named read-outs stand apart in the source and are kept apart here.

Molecular target: T1, human β3-adrenergic receptor (Homo sapiens, UniProt P13945)
T1 construct: Full length β3 AR clones (402 amino acids) containing the last 6 amino acids of hβ3—AR are prepared; expressed in transfected cells; host or cells: CHO cells
T1 sequence (P13945 whole entry): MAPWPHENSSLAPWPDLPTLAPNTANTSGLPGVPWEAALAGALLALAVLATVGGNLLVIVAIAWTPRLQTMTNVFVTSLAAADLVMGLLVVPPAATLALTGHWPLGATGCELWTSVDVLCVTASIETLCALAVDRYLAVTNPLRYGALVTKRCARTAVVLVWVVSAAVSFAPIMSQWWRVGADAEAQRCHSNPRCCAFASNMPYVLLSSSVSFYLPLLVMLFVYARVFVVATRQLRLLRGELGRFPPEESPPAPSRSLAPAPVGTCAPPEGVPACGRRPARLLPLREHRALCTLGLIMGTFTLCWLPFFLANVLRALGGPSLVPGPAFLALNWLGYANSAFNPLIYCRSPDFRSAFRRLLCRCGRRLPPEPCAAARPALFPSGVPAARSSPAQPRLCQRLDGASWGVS
Experiment: cAMP response (SPA kit) in CHO cells transfected with human β3 adrenergic receptor
Type: cell-based
Conditions: for IA(β3): maximal response of compound compared to maximal response of isoproterenol at 10^-5 M, CHO cells, human β3-AR; for EC50: CHO cells expressing human β3-AR, 10^-9 M to 10^-5 M, 30 min at 37° C., cAMP by SPA

Row | SMILES | IA(β3) | EC50 (read-out: EC50(β3)) | EC50 (EC50(β3, μM))
1 | O=C(NCc1ccc(F)cc1F)N1CCC(Nc2ccc(CCNC[C@H](O)COc3ccc(O)cc3)cc2)CC1 [Example 80, 4-(4-{2-[(2S)-2-Hydroxy-3-(4-hydroxy-phenoxy)-propylamino]-ethyl}-phenylamino)-piperidine-1-carboxylic acid 2,4-difluoro-benzylamide] | 0.84 | – | –
2 | O=C(CCNC(=O)N1CCC(Nc2ccc(CCNC[C@H](O)COc3ccc(O)cc3)cc2)CC1)Nc1ccc(F)cc1 [Example 81, 4-(4-{2-[(2S)-2-Hydroxy-3-(4-hydroxy-phenoxy)-propylamino]-ethyl}-phenylamino)-piperidine-1-carboxylic Acid [2-(4-fluoro-phenylcarbamoyl)-ethyl]-amide] | 1 | 0.021 µM | –
3 | CN(C(=O)CCNC(=O)N1CCC(Nc2ccc(CCNC[C@H](O)COc3ccc(O)cc3)cc2)CC1)c1ccc(Cl)cc1 [Example 82, 4-(4-{2-[(2S)-2-Hydroxy-3-(4-hydroxy-phenoxy)-propylamino]-ethyl}-phenylamino)-piperidine-1-carboxylic Acid {2-[(4-chloro-phenyl)-methyl-carbamoyl]-ethyl}-amide] | 0.94 | 0.053 µM | –
4 | O=C(NCc1ccc(O)cc1F)N1CCC(Nc2ccc(CCNCC(O)COc3ccc(O)cc3)cc2)CC1 (stereo not shown) [Example 83, 4-(4-{2-[2-Hydroxy-3-(4-hydroxy-phenoxy)-propylamino]-ethyl}-phenylamino)-piperidine-1-carboxylic Acid 2-fluoro-4-hydroxy-benzylamide] | 0.88 | – | –
5 | CN(C)C(=O)Oc1ccc(CNC(=O)N2CCC(Nc3ccc(CCNC[C@H](O)COc4ccc(O)cc4)cc3)CC2)c(F)c1 [Example 84, Dimethyl-carbamic Acid 3-fluoro-4-({[4-(4-{2-[(2S)-2-hydroxy-3-(4-hydroxy-phenoxy)-propylamino]-ethyl}-phenlamino)-piperidine-1-carbonyl]-amino}-methyl)-phenyl Ester] | 0.75 | – | 0.096 µM
6 | O=C(NCc1ccc(F)cc1)N1CCC(Nc2ccc(CCNC[C@H](O)COc3cccc(O)c3)cc2)CC1 [Example 85, 4-(4-{2-[(2S)-2-Hydroxy-3-(3-hydroxy-phenoxy)-propylamino]-ethyl}-phenylamino)-piperidine-1-carboxylic Acid 4-fluoro-benzylamide] | 0.82 | 0.003 µM | –
7 | O=C(O)COc1ccc(CNC(=O)N2CCC(Nc3ccc(CCNC[C@H](O)COc4ccc(O)cc4)cc3)CC2)c(F)c1 [Example 86, [3-Fluoro-4-[[[[4-[[4-[2-[[(S)-2-hydroxy-3-(4-hydroxyphenoxy)propyl]amino]ethyl]phenyl]amino]-1-piperidinyl]carbonyl]amino]methyl]phenoxy]acetic Acid] | 1.1 | 0.127 µM | –
8 | O=C(NCc1ccc(O)cc1F)N1CCC(Nc2ccc(CCNC[C@H](O)COc3cccc(O)c3)cc2)CC1 [Example 87, 4-(4-{2-[(2S)-2-Hydroxy-3-(3-hydroxy-phenoxy)-propylamino]-ethyl}-phenylamino)-piperidine-1-carboxylic Acid 2-fluoro-4-hydroxy-benzylamide] | 0.84 | 0.004 µM | –
9 | O=C(NCCc1cccc(F)c1)N1CCC(Nc2ccc(CCNC[C@H](O)COc3ccc(O)cc3)cc2)CC1 [Example 88, 4-(4-{2-[(2S)-2-Hydroxy-3-(4-hydroxy-phenoxy)-propylamino]-ethyl}-phenylamino)-piperidine-1-carboxylic Acid [2-(3-fluoro-phenyl)-ethyl]-amide] | 0.81 | 0.021 µM | –
10 | CCN(CC)C(=O)CCNC(=O)N1CCC(Nc2ccc(CCNC[C@H](O)COc3ccc(O)cc3)cc2)CC1 [Example 89, 4-(4-{2-[(2S)-2-Hydroxy-3-(4-hydroxy-phenoxy)-propylamino]-ethyl}-phenylamino)-piperidine-1-carboxylic Acid (2-diethylcarbamoyl-ethyl)-amide] | 0.83 | 0.093 µM | –
11 | O=C(CCNC(=O)N1CCC(Nc2ccc(CCNC[C@H](O)COc3ccc(O)cc3)cc2)CC1)N1CCOCC1 [Example 90, 4-(4-{2-[(2S)-2-Hydroxy-3-(4-hydroxy-phenoxy)-propylamino]-ethyl}-phenylamino)-piperidine-1-carboxylic Acid (3-morpholin-4-yl-3-oxo-propyl)-amide] | 0.73 | 0.077 µM | –
12 | CCCCCCCCNC(=O)N1CCC(C(=O)N2CCC(Nc3ccc(CCNC[C@H](O)COc4ccc(O)cc4)cc3)CC2)CC1 [Example 92, 4-[4-(4-{2-[(2S)-2-Hydroxy-3-(4-hydroxy-phenoxy)-propylamino]-ethyl}-phenylamino)-piperidine-1-carbonyl]-piperidine-1-carboxylic Acidoctylamide] | 0.92 | 0.01 µM | –
13 | COc1ccc2[nH]c(C(=O)N3CCC(Nc4ccc(CCNCC(O)COc5ccc(O)cc5)cc4)CC3)cc2c1 (stereo not shown) [Example 94, [4-(4-{2-[2-Hydroxy-3-(4-hydroxy-phenoxy)-propylamino]-ethyl}-phenylamino)-piperidin-1-yl]-(5-methoxy-1H-indol-2-yl)-methanone] | 0.59 and 0.78 | 0.01 µM and 0.054 µM | –
14 | O=C(c1cc2cc(Br)ccc2[nH]1)N1CCC(Nc2ccc(CCNC[C@H](O)COc3ccc(O)cc3)cc2)CC1 [Example 96, (5-Bromo-1H-indol-2-yl)-[4-(4-{2-[(2S)-2-hydroxy-3-(4-hydroxy-phenoxy)-propylamino]-ethyl}-phenylamino)-piperidin-1-yl]-methanone] | 0.83 | 0.306 µM | –
15 | COc1c(C(=O)N2CCC(Nc3ccc(CCNC[C@H](O)COc4ccc(O)cc4)cc3)CC2)sc2ccccc12 [Example 97, [4-(4-{2-[(2S)-2-Hydroxy-3-(4-hydroxy-phenoxy)-propylamino]-ethyl}-phenylamino)-piperidin-1-yl]-(3-methoxy-benzo[b]thiophen-2-yl)-methanone] | 0.79 | 0.034 µM | –
16 | Cc1ccsc1C(=O)N1CCC(Nc2ccc(CCNC[C@H](O)COc3ccc(O)cc3)cc2)CC1 [Example 100, [4-(4-{2-[(2S)-2-Hydroxy-3-(4-hydroxy-phenoxy)-propylamino]-ethyl}-phenylamino)-piperidin-1-yl]-(3-methyl-thiophen-2-yl)-methanone] | 0.98 | 0.016 µM | –
17 | Cc1ccsc1C(=O)N1CCC(Nc2ccc(CCNC[C@H](O)COc3cccc4[nH]c(=O)[nH]c34)cc2)CC1 [Example 101, 4-[(2S)-2-Hydroxy-3-(2-{4-[1-(3-methyl-thiophene-2-carbonyl)-piperidin-4-ylamino]-phenyl}-ethylamino)-propoxy]-1,3-dihydro-benzoimidazol-2-one] | 0.63 | 0.01 µM | –
18 | O=C(c1n[nH]c2ccccc12)N1CCC(Nc2ccc(CCNC[C@H](O)COc3ccc(O)cc3)cc2)CC1 [Example 102, [4-(4-{2-[(2S)-2-Hydroxy-3-(4-hydroxy-phenoxy)-propylamino]-ethyl}-phenylamino)-piperidin-1-yl]-(1H-indazol-3-yl)-methanone] | 0.95 | 0.009 µM | –
19 | CS(=O)(=O)Nc1cc([C@@H](O)CNCCc2ccc(NC3CCN(C(=O)c4ccc(C(=O)O)cc4)CC3)cc2)ccc1O [Example 105, 4-[4-(4-{2-[(2R)-2-Hydroxy-2-(4-hydroxy-3-methanesulfonylamino-phenyl)-ethylamino]-ethyl}-phenylamino)-piperidine-1-carbonyl]-benzoic Acid] | 1 | 0.037 µM | –
20 | Cc1sccc1C(=O)N1CCC(S(=O)(=O)c2ccc(CCNC[C@H](O)COc3ccc(O)cc3)cc2)CC1 [Example 107, [4-(4-{2-[(2S)-2-Hydroxy-3-(4-hydroxy-phenoxy)-propylamino]-ethyl}benenesulfonyl)-piperidin-1-yl]-(2-methyl-thiophen-3-yl)-methanone] | 0.92 | 0.04 µM | –
21 | CCCCCCNC(=O)Nc1ccc(S(=O)(=O)N2CCC(Nc3ccc(CCNC[C@H](O)COc4ccc(O)cc4)cc3)CC2)cc1 [Example 108, 1-Hexyl-3-{4-[4-(4-{2-[(2S)-2-hydroxy-3-(4-hydroxy-phenoxy)-propylamino]-ethyl}-phenylamino)-piperidine-1-sulfonyl]-phenyl}-urea] | 1.08 | 0.007 µM | –
22 | Cc1ccc(S(=O)(=O)N2CCC(Nc3ccc(CCNC[C@H](O)COc4ccc(O)cc4)cc3)CC2)cc1 [Example 112, 4-[(2S)-2-Hydroxy-3-(2-{4-[1-(toluene-4-sulfonyl)-piperidin-4-ylamino]-phenyl}-ethylamino)-propoxy]-phenol] | 0.89 | 0.086 µM | –
23 | CC(=O)Nc1ccc(S(=O)(=O)N2CCC(Nc3ccc(CCNC[C@H](O)COc4ccc(O)cc4)cc3)CC2)cc1 [Example 114, N-{4-[4-(4-{2-[(2S)-2-Hydroxy-3-(4-hydroxy-phenoxy)-propylamino]-ethyl}-phenylamino)-piperidine-1-sulfonyl]-phenyl}-acetamide] | 1.1 | 0.033 µM | –
24 | CC(=O)Nc1nc(C)c(S(=O)(=O)N2CCC(Nc3ccc(CCNC[C@H](O)c4ccc(O)c(NS(C)(=O)=O)c4)cc3)CC2)s1 [Example 115, N-(5-{[4-(4-{2-[((2R)-2-hydroxy-2-{4-hydroxy-3-[(methylsulfonyl)amino]phenyl}-ethyl)amino]ethyl}anilino)piperidin-1-yl]sulfonyl}-4-methyl-1,3-thiazol-2-yl)acetamide] | 0.97 | 0.013 µM | –
